The values below come from patent publication US8846951B2 (AbbVie Inc., priority 2009, dated 2014).

The target in one experiment is T1, 5HT2B receptors (Homo sapiens, UniProt P41595).
T1 construct: expressed in transfected cells; host or cells: CHO-K1 cells
Briefly: Human 5-HT2B functional high throughput screening assay in CHO-K1 cells (calcium flux). The experiment is classed as cell-based. Conditions: for EC50: CHO-K1 cells, calcium flux; call rule not given here. The procedure, abridged:
(§1)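 Serum-starved CHO-K1 cells carrying the receptor; Ca4 dye, 60 min RT. Test compound added after a 10 s baseline, fluorescence followed for 3 min. EC50 from 4-parameter fit; Emax given as % of serotonin effect.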
(Calcium assays in cells follow changes in intracellular calcium, usually with a dye or a luminescent sensor.)

The target in a further experiment is T2, 5HT2C receptors (Homo sapiens, UniProt P28335).
T2 sequence (P28335 33-458): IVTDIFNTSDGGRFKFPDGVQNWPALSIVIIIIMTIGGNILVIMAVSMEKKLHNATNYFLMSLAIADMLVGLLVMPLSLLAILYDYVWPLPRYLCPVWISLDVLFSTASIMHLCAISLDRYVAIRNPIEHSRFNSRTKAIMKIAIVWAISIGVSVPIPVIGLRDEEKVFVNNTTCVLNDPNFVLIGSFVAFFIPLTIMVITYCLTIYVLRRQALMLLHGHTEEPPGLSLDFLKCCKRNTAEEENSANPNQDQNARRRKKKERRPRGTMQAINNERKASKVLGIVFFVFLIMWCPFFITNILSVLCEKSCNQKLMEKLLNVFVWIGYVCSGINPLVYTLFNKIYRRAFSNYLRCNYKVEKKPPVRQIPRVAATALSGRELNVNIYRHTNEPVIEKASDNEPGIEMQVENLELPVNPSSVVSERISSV
Description: Human 5-HT2C functional high throughput screening assay in CHO-K1 cells (calcium flux). The experiment is classed as cell-based. Details: expressed in transfected cells; host or cells: CHO-K1 cells. The settings on record: for EC50: CHO-K1 cells, calcium flux. The procedure, abridged:
as §1

The mark [1] stands for this setting: 5-HT2B agonist activity, read-out: EC50.
The mark [2] stands for this setting: 5-HT2B, maximum functional response as percentage relative to the effect of serotonin.
Setting [3] is: 5-HT2C agonist activity, read-out: EC50.
Setting [4] is: CHO-K1, 5-HT2C, maximum functional response as percentage relative to the effect of serotonin, read-out: Emax.
Where [5] appears, read: CHO-K1, 5-HT2B, maximum functional response as percentage relative to the effect of serotonin, read-out: Emax.
Setting [6] is: CHO-K1, 5-HT2C, maximum functional response as percentage relative to the effect of serotonin.

As a reminder, the EC50 is the concentration needed to bring the measured effect to its halfway point. For orientation: Emax means the size of the effect at its maximum, as opposed to the concentration needed.

Like-named read-outs stand apart in the source and are kept apart here.

T1 sequence (P41595 whole entry): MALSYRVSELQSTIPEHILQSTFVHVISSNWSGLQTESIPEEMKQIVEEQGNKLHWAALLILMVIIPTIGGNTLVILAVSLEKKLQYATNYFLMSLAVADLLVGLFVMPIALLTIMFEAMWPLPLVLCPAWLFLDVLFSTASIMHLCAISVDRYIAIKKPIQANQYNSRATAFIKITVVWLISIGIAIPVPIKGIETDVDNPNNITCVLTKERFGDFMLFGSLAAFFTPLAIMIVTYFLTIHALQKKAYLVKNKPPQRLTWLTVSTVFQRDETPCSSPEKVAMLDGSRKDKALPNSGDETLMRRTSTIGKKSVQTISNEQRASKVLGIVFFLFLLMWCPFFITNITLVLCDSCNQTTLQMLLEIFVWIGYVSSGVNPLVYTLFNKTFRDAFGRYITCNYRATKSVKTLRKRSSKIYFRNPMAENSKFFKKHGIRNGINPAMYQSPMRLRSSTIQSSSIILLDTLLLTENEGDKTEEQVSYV

Take `CC(C)CC(O)c1cccc(-c2ccc3c(c2)C(=O)NC[C@H]2CN(C)C[C@H]32)c1` (stereo partly drawn) [Example 312, (3aS,10bS)-8-[3-(1-Hydroxy-3-methylbutyl)phenyl]-2-methyl-2,3,3a,4,5,10b-hexahydropyrrolo[3,4-d][2]benzazepin-6(1H)-one]: the EC50 at 5HT2B receptors (setting [1]) was over 10000 nM; at 5HT2C receptors (setting [3]), 2 nM. Further, the Emax result on 5HT2B receptors (setting [2]) is “inactive”; at 5HT2C receptors (setting [4]) it was 90%.

In the case of `c1ccc(-c2ccc3c(c2)[C@H]2CNC[C@@H]2CCO3)cc1` (relative stereo) [Example 215, Trans-9-phenyl-2,3,3a,4,5,10b-hexahydro-1H-[1]benzoxepino[4,5-c]pyrrole], the EC50 at 5HT2B receptors (setting [1]) came out at 5000 nM; at 5HT2C receptors (setting [3]) it was 600 nM. The Emax was 15% at 5HT2B receptors (setting [5]) and over 120% at 5HT2C receptors (setting [4]).

As to `CC(C)COc1ccc2c(c1)C(=O)NC[C@@H]1CN(CCF)C[C@@H]21` (relative stereo) [Example 380, Trans-2-(2-fluoroethyl)-8-isobutoxy-2,3,3a,4,5,10b-hexahydropyrrolo[3,4-d][2]benzazepin-6(1H)-one], the Emax result at 5HT2B receptors is “inactive”; at 5HT2C receptors (CHO-K1), 75%. In addition, the EC50 was over 10000 nM on 5HT2B receptors (setting [1]) and 300 nM at 5HT2C receptors (setting [3]).

As to `CN1C[C@H]2CNC(=O)c3cc(-c4ccc(S(C)(=O)=O)cc4)ccc3[C@@H]2C1` (relative stereo) [Example 83, Trans-2-methyl-8-(4-(methylsulfonyl)phenyl)-1,2,3,3a,4,5-hexahydrobenzo[e]pyrrolo[3,4-c]azepin-6(10bH)-one], the EC50 on 5HT2B receptors (setting [1]) is over 10000 nM; on 5HT2C receptors (setting [3]) it was 200 nM. Further, the Emax entry was “inactive” on 5HT2B receptors (setting [2]) and over 120% at 5HT2C receptors (setting [4]).

Take `Cc1cccc(-c2ccc3c(c2)C(=O)NC[C@@H]2CN(C)C[C@@H]32)c1` (relative stereo) [Example 81, Trans-2-methyl-8-m-tolyl-1,2,3,3a,4,5-hexahydrobenzo[e]pyrrolo[3,4-c]azepin-6(10bH)-one]: the EC50 at 5HT2B receptors (setting [1]) was over 10000 nM; at 5HT2C receptors (setting [3]), 1.7 nM. Besides, the maximum response (Emax) result at 5HT2B receptors (setting [2]) was “inactive”; at 5HT2C receptors (setting [4]) it was over 120%.

With `CN1C[C@H]2CNC(=O)c3cccc(F)c3[C@@H]2C1` (relative stereo) [Example 89, Trans-10-fluoro-2-methyl-1,2,3,3a,4,5-hexahydrobenzo[e]pyrrolo[3,4-c]azepin-6(10bH)-one], the results for the Emax on 5HT2B receptors (CHO-K1) and at 5HT2C receptors (setting [6]) were 33% and over 120%, respectively. The EC50 at 5HT2B receptors (EC50, 5-HT2B agonist activity) worked out at 560 nM; at 5HT2C receptors (EC50, 5-HT2C agonist activity), 11.5 nM.

On to `CN1C[C@@H]2CNC(=O)c3cc(OCc4ccccc4F)ccc3[C@H]2C1` [Example 207, (3aS,10bS)-8-(2-Fluorobenzyloxy)-2-methyl-1,2,3,3a,4,5-hexahydrobenzo[e]pyrrolo[3,4-c]azepin-6(10bH)-one], for which the half-maximal effective concentration (EC50) on 5HT2B receptors (setting [1]) was over 10000 nM; at 5HT2C receptors (setting [3]) it was 1 nM. Also, the Emax result was “inactive” at 5HT2B receptors (setting [2]) and over 120% at 5HT2C receptors (setting [4]).

In the case of `CS(=O)(=O)c1cccc(-c2ccc3c(c2)C(=O)NC[C@@H]2CNC[C@@H]32)c1` (relative stereo) [Example 227, Trans-8-(3-(methylsulfonyl)phenyl)-1,2,3,3a,4,5-hexahydrobenzo[c]pyrrolo[3,4-e]azepin-6(10bH)-one], the EC50 was over 10000 nM at 5HT2B receptors (setting [1]) and 0.8 nM on 5HT2C receptors (setting [3]). The Emax entry at 5HT2B receptors (setting [2]) is “inactive”; at 5HT2C receptors (setting [4]), over 120%.

`Cc1noc(C)c1-c1ccc2c(c1)C(=O)NC[C@@H]1CNC[C@@H]21` (single isomer, unassigned) [Example 292, Trans-8-(3,5-dimethyl-1,2-oxazol-4-yl)-2,3,3a,4,5,10b-hexahydropyrrolo[3,4-d][2]benzazepin-6(1H)-one]: the EC50 on 5HT2B receptors (5-HT2B agonist activity) worked out at 2000 nM; on 5HT2C receptors (5-HT2C agonist activity), 50 nM. The Emax was found to be 15% on 5HT2B receptors (setting [2]) and 100% on 5HT2C receptors (5-HT2C, maximum functional response as percentage relative to the effect of serotonin).

For the compound `O=C1NC[C@H]2CN(Cc3ccccc3)C[C@@H]2c2c(F)cc(F)cc21` [Example 105, (3aS,10bS)-2-Benzyl-8,10-difluoro-1,2,3,3a,4,5-hexahydrobenzo[c]pyrrolo[3,4-e]azepin-6(10bH)-one], the Emax entry is “inactive” on 5HT2B receptors (setting [2]) and over 120% on 5HT2C receptors (setting [6]). The EC50 was over 10000 nM at 5HT2B receptors (EC50, 5-HT2B agonist activity) and 20 nM at 5HT2C receptors (EC50, 5-HT2C agonist activity).

In the case of `CCCC(O)c1cccc(-c2ccc3c(c2)C(=O)NC[C@H]2CN(C)C[C@H]32)c1` (stereo partly drawn) [Example 313, (3aS,10bS)-8-[3-(1-Hydroxybutyl)phenyl]-2-methyl-2,3,3a,4,5,10b-hexahydropyrrolo[3,4-d][2]benzazepin-6(1H)-one], the EC50 at 5HT2B receptors (setting [1]) is over 10000 nM; on 5HT2C receptors (setting [3]), 0.8 nM. Moreover, the maximum response (Emax) result at 5HT2B receptors (setting [2]) is “inactive”; on 5HT2C receptors (setting [4]) it was 95%.

For `N#Cc1ccccc1S(=O)(=O)N1Cc2cccnc2[C@@H]2CNC[C@H]2C1` (relative stereo) [Example 355, 2-[Trans-7,7a,8,9,10,10a-hexahydropyrido[3,2-c]pyrrolo[3,4-e]azepin-6(5H)-ylsulfonyl]benzonitrile], the EC50 on 5HT2B receptors (setting [1]) is 6000 nM; on 5HT2C receptors (setting [3]) it was 100 nM. Besides, the Emax at 5HT2B receptors (setting [5]) amounted to 10%; on 5HT2C receptors (setting [4]) it was 90%.

For `CN1C[C@H]2CNC(=O)c3cc(-c4ccccc4F)ccc3[C@@H]2C1` (relative stereo) [Example 77, Trans-8-(2-fluorophenyl)-2-methyl-1,2,3,3a,4,5-hexahydrobenzo[e]pyrrolo[3,4-c]azepin-6(10bH)-one], the EC50 on 5HT2B receptors (setting [1]) was over 10000 nM; at 5HT2C receptors (setting [3]), 5.8 nM. Further, the figures for the Emax entry at 5HT2B receptors (setting [2]) and on 5HT2C receptors (setting [4]) were “inactive” and over 120%, respectively.

Consider `CC(C)C(O)c1cccc(-c2ccc3c(c2)C(=O)NC[C@H]2CN(C)C[C@H]32)c1` (stereo partly drawn) [Example 304, (3aS,10bS)-8-[3-(1-Hydroxy-2-methylpropyl)phenyl]-2-methyl-2,3,3a,4,5,10b-hexahydropyrrolo[3,4-d][2]benzazepin-6(1H)-one], for which the EC50 at 5HT2B receptors (setting [1]) is over 10000 nM; on 5HT2C receptors (setting [3]), 0.7 nM. Also, the Emax entry on 5HT2B receptors (setting [2]) was “inactive”; on 5HT2C receptors (setting [4]), 100%.

`O=C1NC[C@@H]2CNC[C@H]2c2ccc(C3CCOCC3)cc21` (relative stereo) [Example 265, Trans-8-(tetrahydro-2H-pyran-4-yl)-1,2,3,3a,4,5-hexahydrobenzo[c]pyrrolo[3,4-e]azepin-6(10bH)-one]: the values for the EC50 at 5HT2B receptors (setting [1]) and at 5HT2C receptors (setting [3]) were over 10000 nM and 100 nM, respectively. Also, the Emax entry at 5HT2B receptors (setting [2]) was “inactive”; at 5HT2C receptors (setting [4]), over 120%.

With `CN1C[C@@H]2CNC[C@H]2c2ccc(F)cc2C1=O` (relative stereo) [Example 224, Trans-8-fluoro-5-methyl-1,2,3,3a,4,5-hexahydrobenzo[c]pyrrolo[3,4-e]azepin-6(10bH)-one], the Emax on 5HT2B receptors (CHO-K1) was 45%; at 5HT2C receptors (setting [6]) it was over 120%. The EC50 on 5HT2B receptors (EC50, 5-HT2B agonist activity) amounted to 6000 nM.

`Brc1ccc2c(c1)[C@@H]1CNC[C@H]1CCN2` (relative stereo) [Example 396, Trans-9-bromo-1,2,3,3a,4,5,6,10b-octahydropyrrolo[3,4-d][1]benzazepine]: the maximal response (Emax) on 5HT2B receptors (CHO-K1) is 60%; at 5HT2C receptors (setting [6]), 90%. Also, the EC50 on 5HT2B receptors (EC50, 5-HT2B agonist activity) was determined as 6 nM; on 5HT2C receptors (EC50, 5-HT2C agonist activity), 30 nM.

As for `CC(=O)c1cccc(-c2ccc3c(c2)C(=O)N(C)C[C@@H]2CNC[C@@H]32)c1` (relative stereo) [Example 187, Trans-8-(3-acetylphenyl)-5-methyl-1,2,3,3a,4,5-hexahydrobenzo[e]pyrrolo[3,4-c]azepin-6(10bH)-one], the values for the EC50 on 5HT2B receptors (setting [1]) and on 5HT2C receptors (setting [3]) were over 10000 nM and 3 nM, respectively. The results for the Emax result at 5HT2B receptors (setting [2]) and at 5HT2C receptors (setting [4]) were “inactive” and over 120%, respectively.

Turning to `c1ccc(CN2C[C@H]3CCOc4ncccc4[C@@H]3C2)cc1` (relative stereo) [Example 262, Trans-2-benzyl-2,3,3a,4,5,10b-hexahydro-1H-pyrrolo[3′,4′:4,5]oxepino[2,3-b]pyridine], the EC50 on 5HT2B receptors (setting [1]) was over 10000 nM; on 5HT2C receptors (setting [3]), 2000 nM. Moreover, the Emax result was “inactive” at 5HT2B receptors (setting [2]) and 90% at 5HT2C receptors (setting [6]).

On to `CN1C[C@H]2CNC(=O)c3cc(CCc4ccccc4)ccc3[C@@H]2C1` (relative stereo) [Example 87, Trans-2-methyl-8-phenethyl-1,2,3,3a,4,5-hexahydrobenzo[e]pyrrolo[3,4-c]azepin-6(10bH)-one], for which the EC50 was over 10000 nM at 5HT2B receptors (setting [1]) and 38 nM at 5HT2C receptors (setting [3]). Moreover, the figures for the Emax entry at 5HT2B receptors (setting [2]) and on 5HT2C receptors (setting [4]) were “inactive” and 90%, respectively.
